From US20210315893A1 (Galapagos NV, priority 2017, published 2021)

Experiments:
S1PR2 = target: T1, S1PR2 (Homo sapiens, UniProt O95136); experiment: S1PR2 binding assay (competition with radioactively labeled S1P, SpA); conditions: membranes from stable cell line over expressing S1PR2, SpA beads; read-out: S1P2 EC50 (nM), S1PR2 binding EC50
T1 construct: expressed in transfected cells
Method: The following assay can be used for determination of S1PR2 binding. The binding assay measures the potential to compete with radioactively labeled S1P for binding to the receptor.
The assay is performed in a96 well plate where the following reagents are added. First 50 μL compound is added into the assay plate, followed by addition of 100 μL ofa mixture consisting of membrane and Scintillation proximity Assay (SpA) beads [mixture consists […] membranes derived from stable cell line over expressing SPR2, 0.5 mg/well Polyvinyltoluene-Wheat Germ-Agglutinin (PVT-WGA) beads (Perkin Elmer, RPNQOO1)]. All components are diluted in assay buffer containing 20 mM Tris pH 7.5; 10 mM MgCl2; 100 mM NaCl; 0.4% BSA FAF; 1 mM Na3VO4) and incubated for 15 min until addition to the assay plate. Subsequently, 50 ul of radioactively labeled S1P is added to the wells (Sphingosine, D-erythro-[3-3H] 1-phosphate; ARC; ART0778). After an incubation for 2 h at room temperature, plates are centrifuged at 2000 rpm during 20 min. Plates are read on a Topcount reader (Perkin Elmer) immediately after centrifugation (readout time, 1 min/well).

HFL-1 cells [1] = experiment: IL-8 production assay (S1P induced IL-8); format: cell-based; conditions: Homo sapiens, HFL1; S1P (1 μM) induced IL-8 in HFL-1 cells, starvation medium without HSA; read-out: IL8 EC50
Method: This assay is designed to test inhibitory activity of compounds on S1P induced IL-8 on HFL-1 cells, ahuman fetal lung fibroblast cell line.
Human Fetal Lung cells (HFL-1) are seeded in 96 well plates in growth medium (F12K+10% heat inactivated FBS+l1% Pen/strep). After overnight incubation at 37° C., […] cells are refreshed with starvation medium without HSA (F12K+1% FBS+1% Pen/strep). On day three, compounds are added (10 point serial dilution, 30 μM highest concentration, 1/3 dilution, 0.3% DMSO final) and plates are incubated for one h at 37° C., 5% CO2. Subsequently S1P at 1 μM final concentration is added and plates are incubated for 16 to24 h at 37° C., […] after which the supermatant was collected. IL-8 levels in the supernatant are determined with the IL-8 ELISA of R&D systems.

HFL-1 cells [2] = experiment: IL8 assay in the presence of Human Serum Albumin; conditions: HFL1, read-out: HSA IL8 EC50
[3] = target: T2, human GPCR sphingosine 1-phosphate receptor 2 (Homo sapiens, UniProt O95136); experiment: S1PR2 antagonist Ca2+ flux assay; format: cell-based; conditions: antagonist mode, CHO-S1PR2 cells, S1P at EC80, Ca2+ fluorescence; read-out: S1P2 EC50 (nM), S1P2 antagonist EC50
T2 construct: host or cells: CHO
T2 sequence (O95136 whole entry): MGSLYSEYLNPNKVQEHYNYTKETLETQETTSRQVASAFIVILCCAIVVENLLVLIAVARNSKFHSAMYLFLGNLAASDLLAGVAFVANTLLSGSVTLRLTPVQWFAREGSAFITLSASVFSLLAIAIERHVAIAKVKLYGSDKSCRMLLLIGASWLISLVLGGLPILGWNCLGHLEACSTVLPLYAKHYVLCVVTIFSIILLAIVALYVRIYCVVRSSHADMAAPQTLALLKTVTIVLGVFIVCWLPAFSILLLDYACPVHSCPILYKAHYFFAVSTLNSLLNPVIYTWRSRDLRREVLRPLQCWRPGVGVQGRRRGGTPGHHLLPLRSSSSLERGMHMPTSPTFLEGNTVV
Method: Triggering of S1PR2 by administration of Sphingosine-1-phosphate leads to a transient increase in intracellular Ca^2+. The Ca^2+ flux assays are measuring the release of Ca^2+ intracellularly by use of a Ca^2+ sensitive fluorescent dye. The assay is firstly run in agonist mode (incubation of compounds alone) to ensure that the Ca^2+ released measured is not caused by the test compound having an agonistic effect. Then the assay is continued in antagonist mode (Sphingosine-1-Phosphate added to incubated medium containing the test compounds).
CHO cells stably overexpressing human GPCR sphingosine 1-phosphate receptor 2 (CHO-S1PR2 Perkin Elmer; ES-594-A) are seeded from a frozen stock in 384 wells sterile microplates (50 μL; 7,500 cells/well) and are incubated overnight at 37° C. and 5% CO2. The next day cells are washed twice with starvation medium (F-12 Ham's medium containing 0.1% BSA (Fatty acid free: FAF)) and left in 25 μL starvation medium for 1 h at 37° C., 5% CO2. After this starvation cells are incubated with 25 μL buffer containing the Ca^2+-sensitive fluorescent dye (0.5 mg Fluo8+125 mg Allura Red in 100 mL of 1% DMSO, in HBSS+20 mM Hepes+5 mM probenecid). The cells are incubated for an additional 1 h after which 10 μL compounds, diluted in HBSS buffer with 20 mM Hepes and 0.1% BSA (FAF), are added to the cells and intracellular Ca2+ changes are immediately measured by reading fluorescence during 3 min (FDSS/pCELL reader). The ratio of the maximal fluorescence over the background fluorescence before compound injection is used to determine compound response.
After readout of the agonist activity, the plates are incubated for 15 min at 37° C. and 5% CO2. Then, cells are stimulated with 10 μL Sphingosine-1-Phosphate (S1P) (Avanti Polar lipids-860492P) at its EC80 concentration. Intracellular Ca2+ changes are immediately measured by reading fluorescence during 3 min (FDSS/pCELL reader). The ratio of the maximal fluorescence over the background fluorescence before compound injection is used to determine compound response.
The obtained ratio's for agonist and antagonist readout were normalized versus vehicle and EC 100 of S1P ascontrols for agonist mode and versus vehicle and […]. From these normalized data EC50 of the compounds are derived.

T1 sequence (O95136 whole entry): as above

Row | Structure (SMILES) | EC50 (S1PR2) [nM] | EC50 (HFL-1 cells [1]) [nM] | EC50 (HFL-1 cells [2]) [nM] | EC50 [3] [nM]
1 | O=c1c2ccccc2c(Cc2nc3cc(Cl)c(OC(F)(F)F)cc3[nH]2)nn1CC1CC1 [Compound 27, 4-[[6-chloro-5-(trifluoromethoxy)-1H-benzimidazol-2-yl]methyl]-2-(cyclopropylmethyl)phthalazin-1-one] | 3900 | 1110 | 10000 | 868
2 | COc1ccc2c(=O)n(CC(=O)N3CCOCC3)nc(Cc3nc4cc(Cl)c(OCC(F)F)cc4[nH]3)c2c1 [Compound 30, 4-[[5-chloro-6-(2,2-difluoroethoxy)-1H-benzimidazol-2-yl]methyl]-6-methoxy-2-(2-morpholino-2-oxo-ethyl)phthalazin-1-one] | 93.3 | 13.7 | 74.5 | 9.47
3 | COc1ccc2c(Cc3nc4cc(Cl)c(OCC(F)F)cc4[nH]3)nn(CC(=O)N3CCOCC3)c(=O)c2c1 [Compound 31, 4-[[5-chloro-6-(2,2-difluoroethoxy)-1H-benzimidazol-2-yl]methyl]-7-methoxy-2-(2-morpholino-2-oxo-ethyl)phthalazin-1-one] | 93.2 | 11 | 72.6 | 9.11
4 | O=C(Cn1nc(Cc2nc3cc(Cl)c(OCC(F)F)cc3[nH]2)c2ccc(N3CCOCC3)cc2c1=O)N1CCOCC1 [Compound 33, 4-[[5-chloro-6-(2,2-difluoroethoxy)-1H-benzimidazol-2-yl]methyl]-7-morpholino-2-(2-morpholino-2-oxo-ethyl)phthalazin-1-one] | 378 | 15.6 | 129 | 86.5
5 | N#Cc1ccc2c(Cc3nc4cc(Cl)c(OCC(F)F)cc4[nH]3)nn(CC(=O)N3CCOCC3)c(=O)c2c1 [Compound 40, 1-[[5-chloro-6-(2,2-difluoroethoxy)-1H-benzimidazol-2-yl]methyl]-3-(2-morpholino-2-oxo-ethyl)-4-oxo-phthalazine-6-carbonitrile] | 261 | 145 | 292 | 86.4
6 | CS(=O)(=O)c1ccc2c(=O)n(CC(=O)N3CCOCC3)nc(Cc3nc4cc(Cl)c(OCC(F)F)cc4[nH]3)c2c1 [Compound 41, 4-[[5-chloro-6-(2,2-difluoroethoxy)-1H-benzimidazol-2-yl]methyl]-6-methylsulfonyl-2-(2-morpholino-2-oxo-ethyl)phthalazin-1-one] | 1310 | 685 | 2780 | 1050
7 | O=C(O)C1(Cn2nc(Cc3nc4cc(Cl)c(OC(F)(F)F)cc4[nH]3)c3ccccc3c2=O)CC1 [Compound 47, 1-[[4-[[5-chloro-6-(trifluoromethoxy)-1H-benzimidazol-2-yl]methyl]-1-oxo-phthalazin-2-yl]methyl]cyclopropanecarboxylic acid] | 4520 | 1360 | 10000 | 2240
8 | N#Cc1cc2[nH]c(Cc3nn(CC(=O)N4CCOCC4)c(=O)c4cccc(C5CC5)c34)nc2cc1OCC(F)F [Compound 54, 2-[[8-cyclopropyl-3-(2-morpholino-2-oxo-ethyl)-4-oxo-phthalazin-1-yl]methyl]-6-(2,2-difluoroethoxy)-3H-benzimidazole-5-carbonitrile] | 93.5 | 32.2 | 41.1 | 23.8
9 | O=c1c2ccccc2c(Cc2nc3cc(Cl)c(OC(F)(F)F)cc3[nH]2)nn1CC1CNC1 [Compound 61, 2-(azetidin-3-ylmethyl)-4-[[6-chloro-5-(trifluoromethoxy)-1H-benzimidazol-2-yl]methyl]phthalazin-1-one] | 581 | 591 | 1120 | 677
10 | O=c1c2ccccc2c(Cc2nc3cc(Cl)c(OC(F)(F)F)cc3[nH]2)nn1C1CCNCC1 [Compound 62, 4-[[6-chloro-5-(trifluoromethoxy)-1H-benzimidazol-2-yl]methyl]-2-(4-piperidyl)phthalazin-1-one] | 453 | 349 | 6430 | 968
11 | N#Cc1cc2nc(Cc3nn(C4CN(CC(=O)O)C4)c(=O)c4ccccc34)cn2cc1OCC1CC1 [Compound 73] | 478 | 365 | 563 | 1330
12 | CN(C)CC(C(=O)O)n1nc(Cc2nc3cc(OCC(F)F)c(C#N)cc3[nH]2)c2ccccc2c1=O (stereo not shown) [Compound 74, 2-[4-[[6-cyano-5-(2,2-difluoroethoxy)-1H-benzimidazol-2-yl]methyl]-1-oxo-phthalazin-2-yl]-3-(dimethylamino)propanoic acid] | 5330 | 823 | 779 | 2660
13 | CC(C)(C)COc1cc2[nH]c(Cc3nn(CC(=O)N4CCOCC4)c(=O)c4ccccc34)nc2cc1Cl [Compound 160, 4-[[5-chloro-6-(2,2-dimethylpropoxy)-1H-benzimidazol-2-yl]methyl]-2-(2-morpholino-2-oxo-ethyl)phthalazin-1-one] |  | 133 | 1050 | 47.9
14 | CCOc1cc2[nH]c(Cc3nn(CC(=O)N4CCOCC4)c(=O)c4ccccc34)nc2cc1Cl [Compound 165, 4-[(5-chloro-6-ethoxy-1H-benzimidazol-2-yl)methyl]-2-(2-morpholino-2-oxo-ethyl)phthalazin-1-one] |  | 4.65 | 79.9 | 
15 | CC(C)COc1cc2[nH]c(Cc3nn(CC(=O)N4CCOCC4)c(=O)c4ccccc34)nc2cc1Cl [Compound 173, 4-[(5-chloro-6-isobutoxy-1H-benzimidazol-2-yl)methyl]-2-(2-morpholino-2-oxo-ethyl)phthalazin-1-one] |  | 2.4 | 3.47 | 16
16 | N#Cc1cc2[nH]c(Cc3nn(CC(=O)N4CC(O)(C5CC5)C4)c(=O)c4ccccc34)nc2cc1OCC(F)F [Compound 215, 2-[[3-[2-(3-cyclopropyl-3-hydroxy-azetidin-1-yl)-2-oxo-ethyl]-4-oxo-phthalazin-1-yl)methyl]-6-(2,2-difluoroethoxy)-3H-benzimidazole-5-carbonitrile] |  | 200 | 112 | 120
17 | N#Cc1cc2nc(Cc3nn(CC(=O)N4CCOCC4)c(=O)c4ccccc34)cn2cc1OCC(F)F [Compound 256, 6-(2,2-difluoroethoxy)-2-[[3-(2-morpholino-2-oxo-ethyl)-4-oxo-phthalazin-1-yl]methyl]imidazo[1,2-a]pyridine-7-carbonitrile] |  | 2660 | 2350 | 11600
18 | CCOc1cc2[nH]c(Cc3nn(CC(=O)O)c(=O)c4ccccc34)nc2cc1Cl [compound 6, 2-[4-[(5-chloro-6-ethoxy-1H-benzimidazol-2-yl)methyl]-1-oxo-phthalazin-2-yl]acetic acid] |  | 12.4 | 57.2 | 
